Laboratory results: the supplement of paper PMC10307832

Each cell line was assayed with CC1CC(=O)N(C2=CN=C(N=C2N1C3CCCC3)NC4=C(C=C(C=C4)C(=O)NC5CCN(CC5)C)OC)C [NPK76-II-72-1] + C[C@@H](Oc1cc(-c2cnn(C3CCNCC3)c2)cnc1N)c1c(Cl)ccc(F)c1Cl [Crizotinib] (partner 1 µM) (assay: relative viability (nuclei count vs DMSO), 5 days (fraction); higher = more cells survive). Conditions: first compound 0.01 µM.
How it was run: (§1)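 Lung cancer cell lines in 1536-well plates were dosed by pin tool the day after seeding, either with one drug alone or with a fixed anchor-drug dose plus five library-drug doses (not always all listed) in √10 steps. After 5 days, cells were fixed and their nuclei stained in one step (final 0.05% Triton X-100, 1% formaldehyde, 1 ug/ml Hoechst), then counted on 4× images. Relative viability is the nuclei count in treated wells divided by that in vehicle wells. Values are medians of duplicate plates.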
HCC-827 gave a relative viability of 1.01.
In the case of LXF-289, the relative viability is reported as 0.829.
For NCI-H23, the relative viability was 0.544.
With NCI-H647 the relative viability was 1.06.
CAL-12T was tested, and the relative viability was 0.685.
For NCI-H1651, the relative viability was 0.885.
EPLC-272H gave a relative viability of 0.865.
NCI-H2228 showed a relative viability of 0.404.
Cell Line NCI-H1792 has a relative viability of 1.05.
In the case of NCI-H1355, the relative viability is reported as 0.858.
Work on NCI-H3122 yielded a relative viability of 0.268.
In the case of NCI-H1437, the relative viability is reported as 0.843.
NCI-H1755 showed a relative viability of 0.866.
For NCI-H2023, the relative viability was 0.655.
Work on HCC-15 yielded a relative viability of 0.773.
PC-14 showed a relative viability of 0.872.
With EKVX the relative viability was 0.787.
Work on LC-2-ad yielded a relative viability of 0.449.
NCI-H1563 showed a relative viability of 0.875.
Work on NCI-H1944 yielded a relative viability of 0.985.
For NCI-H1975, the relative viability was 0.939.
In the case of RERF-LC-KJ, the relative viability is reported as 0.808.
In the case of ABC-1, the relative viability is reported as 0.907.
NCI-H358 showed a relative viability of 0.606.
NCI-H650 gave a relative viability of 0.799.
Work on PC-3 [JPC-3] yielded a relative viability of 0.943.

Same assay, conditions: first compound 0.03162 µM
NCI-H1915 showed a relative viability of 0.969.
Cell Line HCC-827 has a relative viability of 0.912.
LXF-289 showed a relative viability of 0.84.
NCI-H23 showed a relative viability of 0.563.
Cell Line NCI-H647 has a relative viability of 1.15.
Work on CAL-12T yielded a relative viability of 0.665.
In the case of NCI-H1651, the relative viability is reported as 0.881.
EPLC-272H showed a relative viability of 0.865.
With NCI-H2228 the relative viability was 0.611.
Cell Line NCI-H1792 has a relative viability of 0.817.
For NCI-H1355, the relative viability was 1.06.
Cell Line NCI-H3122 has a relative viability of 0.272.
Cell Line NCI-H1437 has a relative viability of 0.956.
For NCI-H1755, the relative viability was 0.864.
Cell Line NCI-H2023 has a relative viability of 0.571.
Cell Line HCC-15 has a relative viability of 0.874.
With PC-14 the relative viability was 0.944.
Cell Line EKVX has a relative viability of 1.16.
Cell Line NCI-H1563 has a relative viability of 0.905.
NCI-H1944 was tested, and the relative viability was 1.12.
With NCI-H1975 the relative viability was 0.965.
In the case of RERF-LC-KJ, the relative viability is reported as 0.644.
ABC-1 showed a relative viability of 1.13.
Work on NCI-H358 yielded a relative viability of 0.604.
Work on NCI-H650 yielded a relative viability of 0.865.
In the case of PC-3 [JPC-3], the relative viability is reported as 0.958.

Same assay, conditions: first compound 0.1 µM
For NCI-H1915, the relative viability was 0.874.
HCC-827 showed a relative viability of 0.902.
For LXF-289, the relative viability was 0.823.
With CAL-12T the relative viability was 0.719.
NCI-H1651 gave a relative viability of 0.871.
In the case of EPLC-272H, the relative viability is reported as 1.02.
With NCI-H2228 the relative viability was 0.48.
Cell Line NCI-H1792 has a relative viability of 0.968.
With NCI-H1355 the relative viability was 1.13.
With NCI-H3122 the relative viability was 0.282.
With NCI-H1437 the relative viability was 0.834.
NCI-H1755 showed a relative viability of 0.838.
NCI-H2023 gave a relative viability of 0.648.
Work on HCC-15 yielded a relative viability of 0.846.
For PC-14, the relative viability was 0.904.
EKVX was tested, and the relative viability was 0.936.
LC-2-ad was tested, and the relative viability was 0.453.
NCI-H1563 gave a relative viability of 0.84.
NCI-H1944 gave a relative viability of 1.1.
NCI-H1975 gave a relative viability of 0.914.
Cell Line RERF-LC-KJ has a relative viability of 0.771.
In the case of ABC-1, the relative viability is reported as 1.06.
With NCI-H358 the relative viability was 0.604.
NCI-H650 was tested, and the relative viability was 0.629.
Work on PC-3 [JPC-3] yielded a relative viability of 0.998.

Same assay, conditions: first compound 0.3162 µM
NCI-H1915 gave a relative viability of 0.891.
Cell Line HCC-827 has a relative viability of 0.895.
LXF-289 showed a relative viability of 0.801.
Work on NCI-H23 yielded a relative viability of 0.556.
Work on NCI-H647 yielded a relative viability of 0.966.
CAL-12T showed a relative viability of 0.544.
In the case of NCI-H1651, the relative viability is reported as 0.881.
Cell Line EPLC-272H has a relative viability of 0.892.
Cell Line NCI-H2228 has a relative viability of 0.39.
With NCI-H1792 the relative viability was 1.
With NCI-H1355 the relative viability was 0.841.
In the case of NCI-H3122, the relative viability is reported as 0.294.
For NCI-H1437, the relative viability was 0.746.
NCI-H1755 showed a relative viability of 0.837.
For NCI-H2023, the relative viability was 0.508.
HCC-15 was tested, and the relative viability was 0.756.
Cell Line PC-14 has a relative viability of 0.809.
Work on EKVX yielded a relative viability of 0.832.
Cell Line LC-2-ad has a relative viability of 0.44.
For NCI-H1563, the relative viability was 0.825.
Work on NCI-H1944 yielded a relative viability of 1.01.
Cell Line NCI-H1975 has a relative viability of 0.876.
In the case of RERF-LC-KJ, the relative viability is reported as 0.728.
With ABC-1 the relative viability was 1.01.
NCI-H358 showed a relative viability of 0.437.
For PC-3 [JPC-3], the relative viability was 0.938.

Same assay, conditions: first compound 1 µM
NCI-H1915 was tested, and the relative viability was 0.876.
HCC-827 showed a relative viability of 0.892.
LXF-289 showed a relative viability of 0.828.
NCI-H23 showed a relative viability of 0.528.
NCI-H647 showed a relative viability of 1.06.
CAL-12T gave a relative viability of 0.674.
Cell Line NCI-H1651 has a relative viability of 0.868.
In the case of EPLC-272H, the relative viability is reported as 0.91.
NCI-H2228 gave a relative viability of 0.711.
With NCI-H1792 the relative viability was 1.07.
Work on NCI-H1355 yielded a relative viability of 1.16.
For NCI-H3122, the relative viability was 0.329.
NCI-H1437 was tested, and the relative viability was 0.967.
NCI-H1755 showed a relative viability of 0.939.
For NCI-H2023, the relative viability was 0.733.
HCC-15 was tested, and the relative viability was 0.834.
PC-14 was tested, and the relative viability was 1.03.
In the case of EKVX, the relative viability is reported as 0.922.
LC-2-ad was tested, and the relative viability was 0.51.
In the case of NCI-H1563, the relative viability is reported as 0.932.
With NCI-H1944 the relative viability was 1.22.
For NCI-H1975, the relative viability was 0.95.
In the case of RERF-LC-KJ, the relative viability is reported as 0.868.
ABC-1 was tested, and the relative viability was 1.1.
For NCI-H358, the relative viability was 0.651.
NCI-H650 gave a relative viability of 0.825.
Cell Line PC-3 [JPC-3] has a relative viability of 0.995.

What follows are cell lines tested with CC1CC(=O)N(C2=CN=C(N=C2N1C3CCCC3)NC4=C(C=C(C=C4)C(=O)NC5CCN(CC5)C)OC)C [NPK76-II-72-1] + C[C@]1(O)C[C@@H](c2nc(-c3ccc4ccc(-c5ccccc5)nc4c3)c3c(N)nccn32)C1 [Linsitinib] (partner 1 µM) in the same assay as above. Conditions: first compound 0.01 µM.
How it was run: as §1
Cell Line NCI-H1915 has a relative viability of 1.11.
HCC-827 gave a relative viability of 0.891.
